In patent US7314861B2, “Melanin-concentrating hormone analogs” (priority 2001, dated 2008):
Where a SMILES comes first, the peptide text is derived from it. Bridges are numbered along the chain shown (N, C = ends). [ ]: non-standard residue; d: D form. The star is where a group is joined. Pentanoyl(5-guanidino) = NC(N)=NCCCCC(=O)*

Assays:
human MCH-1R = human MCH-1R (Homo sapiens, UniProt Q99705); assay: Aequorin bioluminescence functional assay, MCH-1R; settings: for MCH-1R Activation %: % Activation at 10 μM, aequorin functional assay
Chain of human MCH-1R (Q99705 whole entry): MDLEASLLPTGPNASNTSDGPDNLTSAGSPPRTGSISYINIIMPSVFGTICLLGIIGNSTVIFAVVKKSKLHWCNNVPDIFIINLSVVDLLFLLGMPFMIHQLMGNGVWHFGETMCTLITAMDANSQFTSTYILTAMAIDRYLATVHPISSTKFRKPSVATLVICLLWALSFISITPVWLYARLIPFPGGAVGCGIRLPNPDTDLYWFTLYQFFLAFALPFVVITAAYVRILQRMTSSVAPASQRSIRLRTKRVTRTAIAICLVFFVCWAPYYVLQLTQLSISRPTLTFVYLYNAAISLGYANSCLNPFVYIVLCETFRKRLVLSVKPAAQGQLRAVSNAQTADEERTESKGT
Protocol: The aequorin bioluminescence assay can be used to measure the activity of G protein-coupled receptors that couple through the Gα protein subunit family consisting of Gq and G11. Such coupling leads to phospholipase C activation, intracellular calcium mobilization and protein kinase C activation.
Following approximately 40 hours of expression the apo-aequorin in the cells was charged for 4 hours with coelenterazine (10 μM) under reducing conditions (300 μM reduced glutathione) in ECB buffer (140 mM NaCl, 20 mM KCl, 20 mM HEPES-NaOH [pH=7.4], 5 mM glucose, 1 mM MgCl2, 1 mM CaCl2, 0.1 mg/ml bovine serum albumin).
The cells were harvested, washed once in ECB medium and resuspended to 500,000 cells/ml. 100 μl of cell suspension (corresponding to 5×10^4 cells) was then injected into the test plate containing MCH or MCH analogs, and the integrated light emission was recorded over 30 seconds, in 0.5 second units. 20 μL of lysis buffer (0.1% final Triton X-100 concentration) was then injected and the integrated light emission recorded over 10 seconds, in 0.5 second units. The “fractional response” values for each well were calculated by taking the ratio of the integrated response to the initial challenge to the total integrated luminescence including the Triton X-100 lysis response.

human MCH-R2 = human MCH-R2 (Homo sapiens, UniProt Q969V1); assay: Aequorin bioluminescence functional assay, MCH-2R; settings: for MCH-2R Activation %: % Activation at 10 μM; for MCH-2R Activation % / EC50: aequorin functional assay; for EC50: MCH-2R EC50 (nM); for selective activity at MCH-2R over MCH-1R: greater binding and/or activation at MCH-2R than at MCH-1R
Chain of human MCH-R2 (Q969V1 whole entry): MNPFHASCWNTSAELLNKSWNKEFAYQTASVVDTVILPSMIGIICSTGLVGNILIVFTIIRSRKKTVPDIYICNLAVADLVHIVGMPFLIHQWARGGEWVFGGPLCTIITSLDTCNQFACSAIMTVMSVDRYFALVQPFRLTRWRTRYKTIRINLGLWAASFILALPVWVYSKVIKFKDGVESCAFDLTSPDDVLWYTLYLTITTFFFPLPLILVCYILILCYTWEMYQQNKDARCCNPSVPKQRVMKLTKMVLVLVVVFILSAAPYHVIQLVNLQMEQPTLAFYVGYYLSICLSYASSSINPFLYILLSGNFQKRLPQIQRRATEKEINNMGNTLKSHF

## CSCC[C@@H]1NC(=O)[C@@H](NC(=O)[C@H](CCCNC(=N)N)NC(C)=O)CSSC[C@@H](C(N)=O)NC(=O)[C@@H]2CCCN2C(=O)[C@H](CCCNC(=N)N)NC(=O)[C@H](Cc2ccc(O)cc2)NC(=O)[C@H](C(C)C)NC(=O)[C@H](CCCNC(=N)N)NC(=O)CNC(=O)[C@H](CC(C)C)NC1=O [compound 2]
Human MCH-1R; Table 2
  MCH-1R Activation %: 99%

## CSCC[C@@H]1NC(=O)[C@@H](NC(C)=O)CSSC[C@@H](C(N)=O)NC(=O)[C@@H]2CCCN2C(=O)[C@H](CCCNC(=N)N)NC(=O)[C@H](Cc2ccc(O)cc2)NC(=O)[C@H](C(C)C)NC(=O)[C@H](CCCNC(=N)N)NC(=O)CNC(=O)[C@H](CC(C)C)NC1=O [compound 3]
Human MCH-1R; Table 1
  MCH-1R Activation %: 6.5%

## CSCC[C@@H]1NC(=O)[C@@H](NC(=O)[C@H](CCCNC(=N)N)NC(C)=O)CSSC[C@@H](C(N)=O)NC(=O)[C@@H]2CCCN2C(=O)[C@H](CCCNC(=N)N)NC(=O)[C@H](Cc2ccc(O)cc2)NC(=O)[C@H](C(C)C)NC(=O)[C@H](CCCNC(=N)N)NC(=O)[C@H](C)NC(=O)[C@H](CC(C)C)NC1=O [compound 7]
Human MCH-R2; Table 1
  MCH-2R Activation %: 97%
Human MCH-1R; Table 1
  MCH-1R Activation %: 104%

## CSCC[C@@H]1NC(=O)[C@@H](NC(=O)[C@H](CCCNC(=N)N)NC(C)=O)CSSC[C@@H](C(N)=O)NC(=O)[C@@H]2CCCN2C(=O)[C@H](CCCNC(=N)N)NC(=O)[C@H](Cc2ccc(O)cc2)NC(=O)[C@H](C(C)C)NC(=O)[C@H](CCCNC(=N)N)NC(=O)[C@H](CC(C)C)NC(=O)[C@H](CC(C)C)NC1=O [compound 8]
Human MCH-R2; Table 1
  MCH-2R Activation %: 80%
Human MCH-1R; Table 1
  MCH-1R Activation %: 106%

## CSCC[C@@H]1NC(=O)[C@@H](NC(=O)[C@H](CCCNC(=N)N)NC(C)=O)CSSC[C@@H](C(N)=O)NC(=O)[C@@H]2CCCN2C(=O)[C@H](CCCNC(=N)N)NC(=O)[C@H](Cc2ccc(O)cc2)NC(=O)[C@H](C(C)C)NC(=O)[C@H](CCCNC(=N)N)NC(=O)[C@H](CO)NC(=O)[C@H](CC(C)C)NC1=O [compound 10]
Human MCH-R2; Table 1
  MCH-2R Activation %: 95%
Human MCH-1R; Table 1
  MCH-1R Activation %: 104%

## CSCC[C@@H]1NC(=O)[C@@H](NC(=O)[C@H](CCCNC(=N)N)NC(C)=O)CSSC[C@@H](C(N)=O)NC(=O)[C@@H]2CCCN2C(=O)[C@H](CCCNC(=N)N)NC(=O)[C@H](Cc2ccc(O)cc2)NC(=O)[C@H](C(C)C)NC(=O)[C@H](CCCNC(=N)N)NC(=O)C(C)(C)NC(=O)[C@H](CC(C)C)NC1=O [compound 11]
Human MCH-R2; Table 1, 293-AEQ17 cells
  EC50: 24 nM
Human MCH-R2; Table 1
  MCH-2R Activation %: 104%
Human MCH-R2
  selective activity at MCH-2R over MCH-1R: selectively active
Human MCH-1R; Table 1
  MCH-1R Activation %: 22%

## CSCC[C@@H]1NC(=O)[C@@H](NC(=O)[C@H](CCCNC(=N)N)NC(C)=O)CSSC[C@@H](C(N)=O)NC(=O)[C@@H]2CCCN2C(=O)[C@H](CCCNC(=N)N)NC(=O)[C@H](Cc2ccc(O)cc2)NC(=O)[C@H](C(C)C)NC(=O)[C@H](CCCNC(=N)N)NC(=O)[C@H](c2ccccc2)NC(=O)[C@H](CC(C)C)NC1=O [compound 12]
Human MCH-R2; Table 1, 293-AEQ17 cells
  EC50: 140 nM
Human MCH-R2; Table 1
  MCH-2R Activation %: 80%
Human MCH-R2
  selective activity at MCH-2R over MCH-1R: selectively active
Human MCH-1R
  EC50: > 10 µM
Human MCH-1R; Table 1
  MCH-1R Activation %: 0.1%

## CSCC[C@@H]1NC(=O)[C@@H](NC(=O)[C@H](CCCNC(=N)N)NC(C)=O)CSSC[C@@H](C(N)=O)NC(=O)[C@@H]2CCCN2C(=O)[C@H](CCCNC(=N)N)NC(=O)[C@H](Cc2ccc(O)cc2)NC(=O)[C@H](C(C)C)NC(=O)[C@H](CCCNC(=N)N)NC(=O)[C@@H](C)NC(=O)[C@H](CC(C)C)NC1=O [compound 13]
Human MCH-R2; Table 1, 293-AEQ17 cells
  EC50: 16 nM
Human MCH-R2; Table 1
  MCH-2R Activation %: 103%
Human MCH-R2
  selective activity at MCH-2R over MCH-1R: selectively active
Human MCH-1R; Table 1
  MCH-1R Activation %: 40%

## CSCC[C@@H]1NC(=O)[C@@H](NC(=O)[C@H](CCCNC(=N)N)NC(C)=O)CSSC[C@@H](C(N)=O)NC(=O)[C@@H]2CCCN2C(=O)[C@H](CCCNC(=N)N)NC(=O)[C@H](Cc2ccc(O)cc2)NC(=O)[C@H](C(C)C)NC(=O)[C@H](CCCNC(=N)N)NC(=O)[C@@H](CC2CCCCC2)NC(=O)[C@H](CC(C)C)NC1=O [compound 16]
Human MCH-R2
  selective activity at MCH-2R over MCH-1R: selectively active
Human MCH-1R
  EC50: > 10 µM
Human MCH-1R; Table 1
  MCH-1R Activation %: 0.1%

## CSCC[C@@H]1NC(=O)[C@@H](NC(=O)[C@H](CCCNC(=N)N)NC(C)=O)CSSC[C@@H](C(N)=O)NC(=O)[C@@H]2CCCN2C(=O)[C@H](CCCNC(=N)N)NC(=O)[C@H](Cc2ccc(O)cc2)NC(=O)[C@H](C(C)C)NC(=O)[C@H](CCCNC(=N)N)NC(=O)[C@@H](Cc2ccccc2)NC(=O)[C@H](CC(C)C)NC1=O [compound 17]
Human MCH-R2; Table 1, 293-AEQ17 cells
  EC50: 25 nM
Human MCH-R2; Table 1
  MCH-2R Activation %: 102%
Human MCH-R2
  selective activity at MCH-2R over MCH-1R: selectively active
Human MCH-1R
  EC50: > 10 µM
Human MCH-1R; Table 1
  MCH-1R Activation %: 5%

## CSCC[C@@H]1NC(=O)[C@@H](NC(=O)[C@H](CCCNC(=N)N)NC(C)=O)CSSC[C@@H](C(N)=O)NC(=O)[C@@H]2CCCN2C(=O)[C@H](CCCNC(=N)N)NC(=O)[C@H](Cc2ccc(O)cc2)NC(=O)[C@H](C(C)C)NC(=O)[C@H](CCCCNC(=N)N)NC(=O)CNC(=O)[C@H](CC(C)C)NC1=O [compound 24]
Human MCH-R2; Table 1, 293-AEQ17 cells
  EC50: > 10000 nM
Human MCH-R2; Table 1
  MCH-2R Activation %: 43%
Human MCH-1R; Table 1
  MCH-1R Activation %: 72%

## CSCC[C@@H]1NC(=O)[C@@H](NC(=O)[C@H](CCCNC(=N)N)NC(C)=O)CSSC[C@@H](C(N)=O)NC(=O)[C@@H]2CCCN2C(=O)[C@H](CCCNC(=N)N)NC(=O)[C@H](Cc2ccc(O)cc2)NC(=O)[C@H](C(C)C)NC(=O)[C@H](CCCNC(=N)N[N+](=O)[O-])NC(=O)CNC(=O)[C@H](CC(C)C)NC1=O [compound 25]
Human MCH-R2; Table 1, 293-AEQ17 cells
  EC50: > 10000 nM
Human MCH-R2; Table 1
  MCH-2R Activation %: 39%
Human MCH-R2
  selective activity at MCH-2R over MCH-1R: selectively active
Human MCH-1R
  EC50: > 1 µM

## CSCC[C@@H]1NC(=O)[C@@H](NC(=O)CCCCNC(=N)N)CSSC[C@@H](C(N)=O)NC(=O)[C@@H]2CCCN2C(=O)[C@H](CCCNC(=N)N)NC(=O)[C@H](Cc2ccc(O)cc2)NC(=O)[C@H](C(C)C)NC(=O)[C@H](CCCNC(=N)N)NC(=O)[C@@H](C)NC(=O)[C@H](CC(C)C)NC1=O [compound 34] ({Pentanoyl(5-guanidino)}-CML[dA]RVYRPC-NH2; disulfide 1-10)
Human MCH-R2
  selective activity at MCH-2R over MCH-1R: selectively active

## CC(=O)N[C@@H](CCCNC(=N)N)C(=O)N[C@H]1CSSC[C@@H](C(N)=O)NC(=O)[C@@H]2CCCN2C(=O)[C@H](CCCNC(=N)N)NC(=O)[C@H](Cc2ccc(O)cc2)NC(=O)[C@H](C(C)C)NC(=O)[C@H](CCCCNC(=N)N)NC(=O)[C@@H](C)NC(=O)[C@H](CC(C)C)NC(=O)[C@H](C)NC1=O [compound 38]
Human MCH-R2; Table 1
  MCH-2R Activation %: 49%
Human MCH-1R
  EC50: > 10 µM
Human MCH-1R; Table 1
  MCH-1R Activation %: 20%

## CSCC[C@@H]1NC(=O)[C@@H](NC(=O)[C@H](CCCNC(=N)N)NC(=O)[C@H](CC(C)C)NC(=O)[C@H](CCSC)NC(=O)[C@H](CC(=O)O)NC(=O)[C@H](Cc2ccccc2)NC(=O)[C@H](C)N)CSSC[C@@H](C(=O)N[C@@H](Cc2c[nH]c3ccccc23)C(=O)N[C@@H](CCC(N)=O)C(=O)N[C@H](C(=O)O)C(C)C)NC(=O)[C@@H]2CCCN2C(=O)[C@H](CCCNC(=N)N)NC(=O)[C@H](Cc2ccc(O)cc2)NC(=O)[C@H](C(C)C)NC(=O)[C@H](CCCNC(=N)N)NC(=O)CNC(=O)[C@H](CC(C)C)NC1=O [compound 41] (H-AFDMLRCMLGRVYRPCWQV-OH; disulfide 7-16; N-terminus and C-terminus assumed)
Human MCH-R2; Table 3
  MCH-2R Activation %: 96%
Human MCH-1R; Table 3
  MCH-1R Activation %: 96%

## CSCC[C@H](NC(=O)[C@H](CC(=O)O)NC(=O)[C@H](C)NC(=O)[C@@H](N)CC(=O)O)C(=O)N[C@@H](CC(C)C)C(=O)N[C@@H](CCCNC(=N)N)C(=O)N[C@H]1CSSC[C@@H](C(=O)N[C@@H](Cc2c[nH]c3ccccc23)C(=O)N[C@@H](CCC(N)=O)C(=O)N[C@H](C(=O)O)C(C)C)NC(=O)[C@@H]2CCCN2C(=O)[C@H](CCCNC(=N)N)NC(=O)[C@H](Cc2ccc(O)cc2)NC(=O)[C@H](C(C)C)NC(=O)[C@H](CCCNC(=N)N)NC(=O)CNC(=O)[C@H](CC(C)C)NC(=O)[C@H](CCSC)NC1=O [compound 42] (H-DADMLRCMLGRVYRPCWQV-OH; disulfide 7-16; N-terminus and C-terminus assumed)
Human MCH-R2; Table 3
  MCH-2R Activation %: 102%
Human MCH-1R; Table 3
  MCH-1R Activation %: 97%

## CSCC[C@@H]1NC(=O)[C@@H](NC(=O)[C@H](C)NC(=O)[C@H](CC(C)C)NC(=O)[C@H](CCSC)NC(=O)[C@H](CC(=O)O)NC(=O)[C@H](Cc2ccccc2)NC(=O)[C@@H](N)CC(=O)O)CSSC[C@@H](C(=O)N[C@@H](Cc2c[nH]c3ccccc23)C(=O)N[C@@H](CCC(N)=O)C(=O)N[C@H](C(=O)O)C(C)C)NC(=O)[C@@H]2CCCN2C(=O)[C@H](CCCNC(=N)N)NC(=O)[C@H](Cc2ccc(O)cc2)NC(=O)[C@H](C(C)C)NC(=O)[C@H](CCCNC(=N)N)NC(=O)CNC(=O)[C@H](CC(C)C)NC1=O [compound 46] (H-DFDMLACMLGRVYRPCWQV-OH; disulfide 7-16; N-terminus and C-terminus assumed)
Human MCH-R2; Table 3
  MCH-2R Activation %: 76%
Human MCH-1R; Table 3
  MCH-1R Activation %: 81%

## CSCC[C@@H]1NC(=O)[C@@H](NC(=O)[C@H](CCCNC(=N)N)NC(=O)[C@H](CC(C)C)NC(=O)[C@H](CCSC)NC(=O)[C@H](CC(=O)O)NC(=O)[C@H](Cc2ccccc2)NC(=O)[C@@H](N)CC(=O)O)CSSC[C@@H](C(=O)N[C@@H](Cc2c[nH]c3ccccc23)C(=O)N[C@@H](CCC(N)=O)C(=O)N[C@H](C(=O)O)C(C)C)NC(=O)[C@@H]2CCCN2C(=O)[C@H](CCCNC(=N)N)NC(=O)[C@H](Cc2ccc(O)cc2)NC(=O)[C@H](C(C)C)NC(=O)[C@H](C)NC(=O)CNC(=O)[C@H](CC(C)C)NC1=O [compound 49] (H-DFDMLRCMLGAVYRPCWQV-OH; disulfide 7-16; N-terminus and C-terminus assumed)
Human MCH-R2; Table 3
  EC50: > 1000 nM
Human MCH-1R; Table 3
  MCH-1R Activation %: 24%
